Test results reported in PMC9001978, “Determining the Effects of Differential Expression of GRKs and β-arrestins on CLR-RAMP Agonist Bias” (Frontiers in Physiology, 2022).
“Also recorded” adds a separate entry of the source.

Experiments:
[1] = molecular target: T1, CLR-RAMP1 (Homo sapiens, UniProt O60894+Q16602); test: β-arrestin1 recruitment to CLR-RAMP1 (BRET); details: HEK293T, n = 3
[2] = molecular target: T2, CLR-RAMP2 (Homo sapiens, UniProt O60895+Q16602); test: cAMP accumulation at CLR-RAMP2
[3] = molecular target: T3, CLR-RAMP3 (Homo sapiens, UniProt O60896+Q16602); test: Internalisation of CLR-RAMP3 (BRET CLR-Nluc / RIT-Venus); details: HEK293T, CLR-Nluc + FLAG-RAMP3, RIT-Venus BRET; mean ± SEM, n = 4-5
[4] = molecular target: T1, CLR-RAMP1; test: β-arrestin2 recruitment to CLR-RAMP1 (BRET); details: HEK293T, n = 3
[5] = molecular target: T1, CLR-RAMP1; test: Internalisation of CLR-RAMP1 (BRET CLR-Nluc / RIT-Venus); details: HEK293T, CLR-Nluc + FLAG-RAMP1, RIT-Venus BRET; mean ± SEM, n = 3-4
[6] = molecular target: T2, CLR-RAMP2; test: β-arrestin1 recruitment to CLR-RAMP2 (BRET); details: HEK293T, n = 3
[7] = molecular target: T2, CLR-RAMP2; test: β-arrestin2 recruitment to CLR-RAMP2 (BRET); details: HEK293T, n = 3
[8] = molecular target: T2, CLR-RAMP2; test: Internalisation of CLR-RAMP2 (BRET CLR-Nluc / RIT-Venus); details: HEK293T, CLR-Nluc + FLAG-RAMP2, RIT-Venus BRET; mean ± SEM, n = 3-4
[9] = molecular target: T3, CLR-RAMP3; set-up: method as in Clark et al., 2021; details: AM receptor 2 (AM2R), ref Clark et al., 2021; cited from earlier work
[10] = tested on: 5-HT2CR; details: ref He et al., 2021; cited from earlier work
[11] = tested on: angiotensin-II type-1 receptor (AT1R); details: ref Beautrait et al., 2017; cited from earlier work
Description: (§1) The data we have obtained related to agonist-dependent internalisation of CLR in the presence of barbadin (Figure 3C) appear contradictory when compared to our results obtained with the HEK293∆β-arr1/2 cell lines (Figure 4A).

[12] = tested on: protease-activated receptor 2 (PAR2); details: ref Jung et al., 2021; cited from earlier work
Description: as §1

[13] = tested on: β2-adrenergic receptor (β2AR); details: ref Beautrait et al., 2017; cited from earlier work
Description: as §1

[14] = tested on: V2-vasopressin receptor (V2R); details: ref Beautrait et al., 2017; cited from earlier work
Description: as §1

[15] = tested on: CLR-RAMP complexes; test: Effect of barbadin on CLR-RAMP internalisation; type: cell-based; details: any CLR-RAMP complex, at concentration that blocked GLP-1R internalisation
[16] = tested on: Glucagon-like peptide-1 receptor (GLP-1R); test: Effect on GLP-1R internalisation; type: cell-based; details: 100 μM, 30 min preincubation
[17] = tested on: β-arrestin-AP2 complex; details: ref Beautrait et al., 2017; cited from earlier work
Description: The canonical role of β-arrestins is the desensitisation of G protein signalling; steric hindrance to disrupt G protein-receptor association and acting as scaffolds for proteins which decrease the G protein activity and output e.g. phosphodiesterases (PDEs) ([Perry et al., 2002]). Additionally, β-arrestins mediate agonist dependent internalisation at many GPCRs, through the recruitment of β2-adaptin (AP2) and subsequently clathrin, to mediate endocytosis. […] Barbadin is an inhibitor of the β-arresti ...

[18] = tested on: CLR-RAMP complexes; test: Effect of barbadin on cAMP accumulation in β-arrestin KO HEK293 cells; type: cell-based; details: 100 μM barbadin
[19] = tested on: CLR-RAMP complexes; test: Effect of barbadin on cAMP accumulation at CLR-RAMP complexes; type: cell-based; details: all agonists, three CLR-RAMP complexes
[20] = tested on: free fatty acid receptor 2 (FFAR2); details: ref Wang et al., 2020; cited from earlier work

T2 sequence (Q16602 23-461): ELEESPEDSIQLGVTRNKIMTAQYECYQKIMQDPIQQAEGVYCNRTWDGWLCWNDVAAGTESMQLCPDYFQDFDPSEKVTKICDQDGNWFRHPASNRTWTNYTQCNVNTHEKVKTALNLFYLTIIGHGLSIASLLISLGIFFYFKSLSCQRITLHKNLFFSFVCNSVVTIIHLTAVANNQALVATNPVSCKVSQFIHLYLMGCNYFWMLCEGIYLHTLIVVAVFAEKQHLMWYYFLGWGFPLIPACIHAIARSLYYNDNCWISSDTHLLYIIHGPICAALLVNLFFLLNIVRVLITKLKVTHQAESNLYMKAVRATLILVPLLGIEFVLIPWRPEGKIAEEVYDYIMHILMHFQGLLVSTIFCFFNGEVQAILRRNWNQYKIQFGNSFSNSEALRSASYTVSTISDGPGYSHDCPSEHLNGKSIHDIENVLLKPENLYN
T2 sequence (O60895 43-175): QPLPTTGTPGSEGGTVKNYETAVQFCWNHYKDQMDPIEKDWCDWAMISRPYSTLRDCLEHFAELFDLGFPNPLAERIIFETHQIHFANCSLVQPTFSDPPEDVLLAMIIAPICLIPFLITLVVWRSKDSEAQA
T1 sequence (Q16602 23-461): as the sequence (Q16602 23-461) above
T1 sequence (O60894 27-148): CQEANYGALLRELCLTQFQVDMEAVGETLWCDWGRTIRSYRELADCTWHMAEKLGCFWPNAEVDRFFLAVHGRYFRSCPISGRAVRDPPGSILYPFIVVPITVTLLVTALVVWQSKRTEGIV
T3 sequence (Q16602 23-461): as the sequence (Q16602 23-461) above
T3 sequence (O60896 24-148): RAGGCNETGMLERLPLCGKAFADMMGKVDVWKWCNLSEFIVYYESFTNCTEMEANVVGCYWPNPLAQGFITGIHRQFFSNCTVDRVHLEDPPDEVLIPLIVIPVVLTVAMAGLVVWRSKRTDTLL

Structure (SMILES): CSCC[C@H](NC(=O)[C@H](CC(C)C)NC(=O)[C@H](CCC(N)=O)NC(=O)[C@H](Cc1c[nH]c2ccccc12)NC(=O)[C@H](CC(C)C)NC(=O)[C@H](CCCNC(=N)N)NC(=O)[C@H](Cc1c[nH]cn1)NC(=O)[C@H](CO)NC(=O)[C@H](CC(C)C)NC(=O)[C@H](CC(N)=O)NC(=O)[C@H](CCC(N)=O)NC(=O)[C@@H](NC(=O)[C@H](CCC(N)=O)NC(=O)[C@@H]1CSSC[C@H](NC(=O)CNC(=O)[C@@H](NC(=O)[C@H](CCCNC(=N)N)NC(=O)[C@H](CC(C)C)NC(=O)[C@H](CC(C)C)NC(=O)[C@H](CCC(N)=O)NC(=O)[C@H](C)NC(=O)[C@H](CCC(N)=O)NC(=O)[C@@H](N)[C@@H](C)O)C(C)C)C(=O)N[C@@H](C(C)C)C(=O)N[C@@H](CC(C)C)C(=O)NCC(=O)N[C@@H]([C@@H](C)O)C(=O)N1)C(C)C)C(=O)NCC(=O)N1CCC[C@H]1C(=O)N[C@@H](C)C(=O)NCC(=O)N[C@@H](CCCNC(=N)N)C(=O)N[C@@H](CCC(N)=O)C(=O)N[C@@H](CC(=O)O)C(=O)N[C@@H](CO)C(=O)N[C@@H](C)C(=O)N1CCC[C@H]1C(=O)N[C@H](C(=O)N[C@@H](CC(=O)O)C(=O)N1CCC[C@H]1C(=O)N[C@@H](CO)C(=O)N[C@@H](CO)C(=O)N1CCC[C@H]1C(=O)N[C@@H](Cc1c[nH]cn1)C(=O)N[C@@H](CO)C(=O)N[C@@H](Cc1ccc(O)cc1)C(N)=O)C(C)C [AM2, adrenomedullin 2]
- Emax, β-arrestin1 recruitment ([1]; CLR-Nluc + FLAG-RAMP1 + β-arrestin1-YFP, BRET, mean ± SEM): ~63 ± 27 BRET units (x10^-3)
- Emax, β-arrestin1 recruitment ([1]; GRK2 overexpressed): ~46 ± 5 BRET units (x10^-3)
- Emax, β-arrestin1 recruitment ([1]; GRK3 overexpressed): ~32 ± 2 BRET units (x10^-3)
- Emax, β-arrestin1 recruitment ([1]; GRK4 overexpressed): ~28 ± 7 BRET units (x10^-3)
- Emax, β-arrestin1 recruitment ([1]; GRK6 overexpressed): ~10 ± 6 BRET units (x10^-3)
- Emax, β-arrestin1 recruitment ([1]; GRK series: Vector): ~63 ± 26 BRET units (x10^-3)
- Effect of barbadin pretreatment on cAMP accumulation ([2]; AM2 at CLR-RAMP2): far smaller
- Change in cAMP potency on β-arrestin2 overexpression ([2]; CLR-RAMP2, HEK293T, p = 0.02): significant decrease in potency
- Emax, internalisation [3]: ~-8 ± 3 BRET units (x10^-3)
- Emax, β-arrestin2 recruitment ([4]; CLR-Nluc + FLAG-RAMP1 + β-arrestin2-YFP, BRET, mean ± SEM): ~98 ± 21 BRET units (x10^-3)
- Emax, β-arrestin2 recruitment ([4]; GRK2 overexpressed): ~54 ± 47 BRET units (x10^-3)
- Emax, β-arrestin2 recruitment ([4]; GRK3 overexpressed): ~49 ± 8 BRET units (x10^-3)
- Emax, β-arrestin2 recruitment ([4]; GRK4 overexpressed): ~45 ± 4 BRET units (x10^-3)
- Emax, β-arrestin2 recruitment ([4]; GRK series: Vector): ~98 ± 21 BRET units (x10^-3)
- Emax, internalisation [5]: ~-63 ± 41 BRET units (x10^-3)
- Emax, β-arrestin1 recruitment ([6]; CLR-Nluc + FLAG-RAMP2 + β-arrestin1-YFP, BRET, mean ± SEM): 3 ± 1 BRET units (x10^-3)
- Emax, β-arrestin1 recruitment ([6]; GRK2 overexpressed): 7 ± 1 BRET units (x10^-3)
- Emax, β-arrestin1 recruitment ([6]; GRK3 overexpressed): 11 ± 1 BRET units (x10^-3)
- Emax, β-arrestin1 recruitment ([6]; GRK4 overexpressed): 4 ± 1 BRET units (x10^-3)
- Emax, β-arrestin1 recruitment ([6]; GRK series: Vector): 3 ± 1 BRET units (x10^-3)
- Emax, β-arrestin2 recruitment ([7]; CLR-Nluc + FLAG-RAMP2 + β-arrestin2-YFP, BRET, mean ± SEM): 9 ± 1 BRET units (x10^-3)
- Emax, β-arrestin2 recruitment ([7]; GRK4 overexpressed): 10 ± 2 BRET units (x10^-3)
- Emax, β-arrestin2 recruitment ([7]; GRK series: Vector): 9 ± 1 BRET units (x10^-3)
- Emax, internalisation [8]: ~-20 ± 18 BRET units (x10^-3)
- Rank order of potency [9]: equipotent agonists

Structure (SMILES): Nn1cnc2scc(-c3ccc(Cc4ccccc4)cc3)c2c1=O [Barbadin]
- Block of receptor internalisation [10]: successfully block
- Block of receptor internalisation [11]: successfully block
- Block of receptor internalisation [12]: successfully block
- Block of receptor internalisation [13]: successfully block
- Block of receptor internalisation [14]: successfully block
- Effect of barbadin on agonist-mediated CLR internalisation [15]: did not block agonist-mediated CLR internalisation; also recorded: no effect on receptor internalisation
- Effect on GLP-1R internalisation [16]: successfully block
- Effect on GLP-1R internalisation ([16]; listed as barbadin): inhibit GLP-1R internalisation
- Effect on β-arrestin recruitment [17]: without inhibiting β-arrestin recruitment
- Inhibition of β-arrestin-AP2 interaction [17]: inhibitor of the β-arrestin-AP2 interacting domain
- Effect of barbadin on cAMP accumulation [18]: agonist dependent reduction in cAMP accumulation
- Effect of barbadin on cAMP accumulation [19]: reduce cAMP accumulation
- Effect of barbadin on cAMP accumulation ([19]; listed as barbadin): significantly reduce cAMP accumulation; also recorded: significantly attenuated cAMP signalling
- Block of receptor internalisation [20]: successfully block
